Experimental data: patent US12319655B2, “RAF kinase inhibitors and methods of use thereof” (Deciphera Pharmaceuticals, LLC, priority 2021, dated 2025)

Experiments:
A375 cells = test: A375 Cell Proliferation Assay (1); type: cell-based; conditions: Homo sapiens, A-375
Method in brief: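 Resazurin fluorescence (excitation 540 nm, emission 600 nm, after a further 5-6 h) gave IC50s from triplicate compound dilution series.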

[1] = biological target: C-Raf kinase (SEQ. ID NO: 3) (Homo sapiens (Human), UniProt P04049, Y340D/Y341D); test: Biochemical Assay for C-Raf (1); conditions: Table J, assay version (1); read-out: CRAF (1) IC50
Method in brief: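 IC50 values come from a four-parameter fit of percent inhibition, using the reaction rate over 4–5 h of a 6 h continuous 340 nm read at 30 °C. The enzyme mix was C-Raf 0.43 nM, MEK substrate 30.1 nM and ATP 1 mM, in a PK/LDH NADH-coupled format in Tris pH 7.5 with 1% DMSO.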

[2] = biological target: B-Raf kinase (SEQ. ID NO: 2) (Homo sapiens (Human), UniProt P15056); test: Biochemical Assay for B-Raf (1); conditions: Table J, assay version (1); read-out: BRAF (1) IC50
Method in brief: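 IC50 derived by four-parameter sigmoidal fit of percent inhibition, normalised to uninhibited and reference-inhibitor controls, using reaction rates over 4–5 h. Coupled spectrophotometric readout (NADH loss at 340 nm, 6 h, 30° C.); 1 mM ATP, 30.1 nM MEK, 0.13 nM B-Raf, pH 7.5 Tris buffer, 1% DMSO.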

H2405 cells = test: H2405 Cell Proliferation Assay (1); type: cell-based; conditions: Homo sapiens, NCI-H2405
Method in brief: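 Viability was read by resazurin reduction (ex 540 nm, em 600 nm; 5-6 h with 40 μL of 440 μM stock) after 67-72 h compound exposure at 37 °C.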

C-Raf kinase (SEQ. ID NO: 3), sequence (P04049 307-648 Y340D/Y341D): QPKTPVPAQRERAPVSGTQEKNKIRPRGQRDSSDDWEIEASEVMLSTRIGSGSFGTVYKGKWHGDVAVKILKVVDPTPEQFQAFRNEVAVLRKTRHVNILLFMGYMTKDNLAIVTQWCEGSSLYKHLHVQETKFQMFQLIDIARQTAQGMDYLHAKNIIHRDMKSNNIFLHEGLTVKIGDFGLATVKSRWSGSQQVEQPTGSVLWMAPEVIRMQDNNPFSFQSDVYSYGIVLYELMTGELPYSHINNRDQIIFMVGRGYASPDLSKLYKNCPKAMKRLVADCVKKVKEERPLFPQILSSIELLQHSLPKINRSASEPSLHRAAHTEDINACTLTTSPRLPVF
B-Raf kinase (SEQ. ID NO: 2), sequence (P15056 416-766): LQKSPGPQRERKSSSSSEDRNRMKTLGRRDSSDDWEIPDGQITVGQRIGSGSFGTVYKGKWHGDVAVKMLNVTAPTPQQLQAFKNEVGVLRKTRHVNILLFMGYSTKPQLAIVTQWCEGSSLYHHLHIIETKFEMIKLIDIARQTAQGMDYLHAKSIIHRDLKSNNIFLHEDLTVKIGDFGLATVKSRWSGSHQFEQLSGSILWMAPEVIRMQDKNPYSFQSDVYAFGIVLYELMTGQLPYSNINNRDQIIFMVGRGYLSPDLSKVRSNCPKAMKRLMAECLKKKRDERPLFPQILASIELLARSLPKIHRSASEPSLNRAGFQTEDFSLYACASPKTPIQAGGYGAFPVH

IC50 (A375 cells) [nM]	IC50 [1] [nM]	IC50 [2] [nM]	IC50 (H2405 cells) [nM]	SMILES
100 to 500	100 to 500	500 to 1000	100 to 500	CNC(=O)c1cc(-c2cccc(-c3cc(NC(=O)c4ccnc(C(C)(C)C#N)c4)cnc3C)c2)cnn1 [Example 201]
≤ 100	≤ 100	≤ 100	100 to 500	Cc1ccc(NC(=O)c2cc(CN(C)C)cc(C(F)(F)F)c2)cc1-c1cccc(-c2cc(NC(=O)C3CC3)ncn2)c1 [Example 202]
100 to 500	100 to 500	100 to 500	100 to 500	CNC(=O)c1cc(-c2cccc(-c3cc(NC(=O)c4ccnc(C(C)(C)C#N)c4)cnc3C)c2)ncn1 [Example 204]
1000 to 10000	≤ 100	100 to 500	1000 to 10000	Cc1ncc(NC(=O)c2ccnc(C(C)(C)C#N)c2)cc1-c1cccc(-c2cc(N)ncn2)c1 [Example 207]
≤ 100	≤ 100	≤ 100	≤ 100	Cc1cc(-c2cc(NC(=O)C3CC3)ncn2)cc(-c2cc(NC(=O)c3ccnc(C(C)(C)C#N)c3)ccc2C)c1 [Example 212]
≤ 100	≤ 100	100 to 500	100 to 500	CNC(=O)c1cc(-c2cc(-c3cc(NC(=O)c4ccnc(C(C)(C)F)c4)ccc3C)ccn2)ccn1 [Example 214]
≤ 100	≤ 100	100 to 500	100 to 500	Cc1ncc(NC(=O)c2ccnc(C(C)(C)C#N)c2)cc1-c1cc(-c2cc(NC(=O)C3CC3)ncn2)cc(C2CC2)c1 [Example 218]
1000 to 10000	≤ 100	≤ 100	1000 to 10000	COCCNc1cc(-c2nccc(-c3cc(NC(=O)c4ccnc(C(C)(C)C#N)c4)ccc3C)n2)ccn1 [Example 221]
≤ 100	≤ 100	≤ 100	100 to 500	Cc1ncc(NC(=O)c2ccnc(C(C)(C)C#N)c2)cc1-c1cccc(-c2ccnc(NC(=O)C3CC3)c2)c1 [Example 222]
≤ 100	≤ 100	≤ 100	≤ 100	Cc1ccc(NC(=O)c2ccnc(C(C)(C)C#N)c2)cc1-c1cccc(-c2ccnc(NC(=O)C3CC3)c2)c1 [Example 223]
≤ 100	≤ 100	≤ 100	≤ 100	Cc1ccc(NC(=O)c2ccnc(C(C)(C)C#N)c2)cc1-c1cncc(-c2cc(NC(=O)C3CC3)ncn2)c1 [Example 224]
≤ 100	≤ 100	≤ 100	500 to 1000	COC(=O)Nc1cc(-c2cccc(-c3cc(NC(=O)c4ccnc(C(C)(C)C#N)c4)cnc3C)c2)ncn1 [Example 225]
100 to 500	≤ 100	≤ 100	≤ 100	Cc1ccc(NC(=O)c2ccnc(C3CC3)c2)cc1-c1ccnc(-c2ccnc(NC(=O)C3CC3)c2)n1 [Example 229]
≤ 100	≤ 100	≤ 100	≤ 100	Cc1ccc(NC(=O)c2ccnc(C(C)(C)C#N)c2)cc1-c1cnnc(-c2ccnc(NC(=O)C3CC3)c2)c1 [Example 230]
≤ 100	≤ 100	≤ 100	≤ 100	CNC(=O)c1cc(-c2cc(-c3cc(NC(=O)c4cccc(C(C)(C)C#N)c4)ccc3C)cc(OCCO)n2)ccn1 [Example 231]
≤ 100	≤ 100	100 to 500	100 to 500	CNC(=O)c1cc(-c2cncc(-c3cc(NC(=O)c4ccnc(C(C)(C)C#N)c4)ccc3C)c2)ncn1 [Example 235]
1000 to 10000	100 to 500	100 to 500	500 to 1000	COC(C)(C)C(=O)Nc1cc(-c2cc(-c3cc(NC(=O)c4ccnc(C(C)(C)C#N)c4)ccc3C)ccn2)ccn1 [Example 237]
100 to 500	≤ 100	100 to 500	100 to 500	CC(C)(C#N)c1cc(C(=O)Nc2ccc(C#N)c(-c3cccc(-c4cc(NC(=O)C5CC5)ncn4)c3)c2)ccn1 [Example 240]
≤ 100	≤ 100	≤ 100	≤ 100	Cc1ccc(NC(=O)c2ccnc(C(C)(C)C#N)c2)cc1-c1ccnc(-c2ccnc(NC(=O)C3(C#N)CC3)c2)n1 [Example 241]
500 to 1000	100 to 500	100 to 500	100 to 500	CNC(=O)c1cc(-c2ccnc(-c3cc(NC(=O)c4ccnc(C(C)(C)C#N)c4)c(F)cc3C)n2)ccn1 [Example 242]
≤ 100	≤ 100	≤ 100	≤ 100	Cc1ccc(NC(=O)c2ccnc(C(C)(C)C#N)c2)cc1-c1cc(-c2ccnc(NC(=O)C3CC3)c2)cnn1 [Example 245]

IC50 (A375 cells) [nM]	IC50 [1] [nM]	IC50 [2] [nM]	IC50 (H2405 cells) [nM]	SMILES
100 to 500	≤ 100	100 to 500	100 to 500	CNC(=O)c1cc(-c2ccnc(-c3cc(NC(=O)c4ccnc(C(C)(C)F)c4)ccc3C)n2)ccn1 [Example 246]
1000 to 10000	100 to 500	1000 to 10000	100 to 500	CNC(=O)c1cc(-c2cc(-c3cc(NC(=O)c4ccnc(C(C)(C)C#N)c4)ccc3C#N)ccn2)ccn1 [Example 247]
≤ 100	≤ 100	≤ 100	100 to 500	Cc1ncc(NC(=O)c2ccnc(C(C)(C)F)c2)cc1-c1cccc(-c2cc(NC(=O)C3CC3)ncn2)c1 [Example 249]
100 to 500	≤ 100	≤ 100	100 to 500	Cc1ccc(NC(=O)c2cnnc(C3CC3)c2)cc1-c1ccnc(-c2ccnc(NC(=O)C3CC3)c2)n1 [Example 250]
≤ 100	≤ 100	≤ 100	100 to 500	Cc1ncc(NC(=O)c2ccnc(C(C)(C)C#N)c2)cc1-c1ccnc(-c2ccnc(NC(=O)C3CC3)c2)c1 [Example 251]
100 to 500	≤ 100	≤ 100	100 to 500	Cc1ncc(NC(=O)c2ccnc(C3CC3)c2)cc1-c1ccnc(-c2ccnc(NC(=O)C3CC3)c2)c1 [Example 253]
1000 to 10000	≤ 100	≤ 100	1000 to 10000	Cc1ncc(NC(=O)c2cnnc(C3CC3)c2)cc1-c1ccnc(-c2ccnc(NC(=O)C3CC3)c2)c1 [Example 254]
≤ 100	≤ 100	≤ 100	100 to 500	Cc1ccc(NC(=O)c2ccnc(C3CC3)c2)cc1-c1cccc(-c2cc(NC(=O)C3CC3)ncn2)c1 [Example 255]
500 to 1000	≤ 100	≤ 100	100 to 500	Cc1ncc(NC(=O)c2ccnc(C3CC3)c2)cc1-c1cnc(C)c(-c2ccnc(NC(=O)C3CC3)c2)c1 [Example 256]
500 to 1000	≤ 100	100 to 500	100 to 500	CNC(=O)c1cc(-c2cc(-c3cc(NC(=O)c4ccnc(C(C)(C)C#N)c4)ccc3F)cc(C)n2)ccn1 [Example 259]
≤ 100	≤ 100	100 to 500	100 to 500	CNC(=O)c1cc(-c2cc(-c3cc(NC(=O)c4ccnc(C(C)(C)OC)c4)ccc3C)ccn2)ccn1 [Example 264]
≤ 100	≤ 100	≤ 100	≤ 100	CNC(=O)c1cc(-c2cc(-c3cc(NC(=O)c4ccnc(C5(C#N)CC5)c4)ccc3C)ccn2)ccn1 [Example 265]
100 to 500	≤ 100	100 to 500	100 to 500	CCNC(=O)c1cc(-c2cc(-c3cc(NC(=O)c4ccnc(C(C)(C)C#N)c4)ccc3C)ccn2)ccn1 [Example 266]
100 to 500	≤ 100	≤ 100	500 to 1000	Cc1ccc(NC(=O)c2ccnc(C(C)(C)C#N)c2)cc1-c1cccc(-c2cc(N)ncn2)c1 [Example 267]
100 to 500	100 to 500	100 to 500	100 to 500	CNC(=O)c1cc(-c2ccnc(-c3cc(NC(=O)c4ccnc(C(C)(C)OC)c4)ccc3C)n2)ccn1 [Example 268]
≤ 100	≤ 100	≤ 100	≤ 100	Cc1ncc(NC(=O)c2ccnc(C(C)C)c2)cc1-c1cccc(-c2ccnc(NC(=O)C3CC3)c2)n1 [Example 269]
100 to 500	≤ 100	≤ 100	100 to 500	Cc1ncc(NC(=O)c2ccnc(C3CC3)c2)cc1-c1cccc(-c2ccnc(NC(=O)C3CC3)c2)n1 [Example 270]
500 to 1000	≤ 100	≤ 100	100 to 500	Cc1cc(F)c(NC(=O)c2ccnc(C(F)(F)F)c2)cc1-c1cncc(-c2ccnc(NC(=O)C3CC3)c2)n1 [Example 271]
1000 to 10000	≤ 100	100 to 500	1000 to 10000	Cc1cc(C(=O)Nc2cnc(C)c(-c3ccnc(-c4ccnc(NC(=O)C5CC5)c4)n3)c2)ccn1 [Example 273]
≤ 100	≤ 100	≤ 100	≤ 100	COC(C)(C)c1cc(C(=O)Nc2cnc(C)c(-c3cccc(-c4cc(NC(=O)C5CC5)ncn4)c3)c2)ccn1 [Example 274]
